The values that follow come from patent publication US11453671B2, “Pyrazolopyrimidine inhibitors of JAK kinases and uses thereof” (Genentech, Inc., priority 2020, dated 2022).

Data set [1] can be described thus: Cell cytotoxicity assay Jurkat (CellTiter-Glo, 72 hours). Type of data set: cell-based. As to conditions: human, Jurkat clone E6-1 cells, Table 3; 72 hours, top concentration of 50 μM; read-out: Cytotox Jurkat EC50. An outline of the steps:
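HEK-293T or Jurkat E6-1 cells plated at 450 cells/well were treated the next day with a 10-point titration from 50 μM top (0.5% DMSO final). After 72 h at 37° C, viability was read by CellTiter-Glo luminescence.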
(Cellular ATP, detected with luciferase, serves as a proxy for viable cell number.)

The subject of data set [2] is JAK1: IL-13-stimulated STAT6 phosphorylation in BEAS-2B cells. The experiment in a line: P-STAT6 BEAS-2B+IL-13 Cell Assay. Type of data set: cell-based, human. Particulars: Homo sapiens, BEAS-2B, IL-13 stimulation, read-out: Cellular JAK1 PSTAT6 BEAS2B + IL13 IC50. In short, it runs like this:
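BEAS-2B cells in BEGM preincubated 1 h at 37 °C with 10-point, 1:2 compound dilutions, then stimulated 15 min with IL-13 (250 ng/mL stock). Lysate pSTAT6 (Tyr641) captured on total-STAT6 antibody and read by MSD electrochemiluminescence; IC50 from four-parameter logistic fit.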

Data set [3] can be described thus: Cell cytotoxicity assay A549 (CellTiter-Glo, 72 hours). Type of data set: cell-based. As to conditions: human, A549 cells, Table 3; 72 hours, top concentration of 50 μM; read-out: Cytotox A549 EC50. In short, it runs like this:
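A549 cells were plated overnight, then exposed for 72 h at 37 °C to a 10-point compound titration (top 50 μM, 0.5% DMSO final). Viability was read as CellTiter-Glo luminescence after 20 min at room temperature.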

As for `CS(=O)(=O)c1ccc(OC(F)F)c(-c2nn(CC#N)cc2NC(=O)c2cnn3cccnc23)c1` [Example 28, N-[1-(cyanomethyl)-3-[2-(difluoromethoxy)-5-methylsulfonyl-phenyl]pyrazol-4-yl]pyrazolo[1,5-a]pyrimidine-3-carboxamide], the half-maximal effective concentration (EC50) at 72 h in data set [1] is 39 µM; in data set [3], at least 50 µM. Besides, the IC50 in data set [2] stood at 0.0095 µM.
As to `CN(C)S(=O)(=O)c1ccc(OC(F)F)c(-c2nn(C)cc2NC(=O)c2cnn3cccnc23)c1` [Example 30, N-[3-[2-(difluoromethoxy)-5-(dimethylsulfamoyl)phenyl]-1-methyl-pyrazol-4-yl]pyrazolo[1,5-a]pyrimidine-3-carboxamide], the EC50 at 72 h in data set [1] is 9.2 µM; in data set [3], 6.1 µM. In addition, the IC50 in data set [2] is 0.011 µM.
The like results for `Cn1cc(S(=O)(=O)c2ccc(OC(F)F)c(-c3nn(C)cc3NC(=O)c3cnn4cccnc34)c2)cn1` [Example 35, N-[3-[2-(difluoromethoxy)-5-(1-methylpyrazol-4-yl)sulfonyl-phenyl]-1-methyl-pyrazol-4-yl]pyrazolo[1,5-a]pyrimidine-3-carboxamide] were, in that order, 21 µM, 22 µM and 0.024 µM.
With `Cn1cc(NC(=O)c2cnn3cccnc23)c(-c2cc(S(=O)(=O)c3ccccc3)ccc2OC(F)F)n1` [Example 40, N-[3-[5-(benzenesulfonyl)-2-(difluoromethoxy)phenyl]-1-methyl-pyrazol-4-yl]pyrazolo[1,5-a]pyrimidine-3-carboxamide], the EC50 at 72 h in data set [1] and in data set [3] was at least 50 µM throughout. Moreover, the IC50 in data set [2] is 0.024 µM.
For `Cn1cc(NC(=O)c2cnn3cccnc23)c(-c2cc(S(=O)(=O)c3cn[nH]c3)ccc2OC(F)F)n1` [Example 41, N-[3-[2-(difluoromethoxy)-5-(1H-pyrazol-4-ylsulfonyl)phenyl]-1-methyl-pyrazol-4-yl]pyrazolo[1,5-a]pyrimidine-3-carboxamide], the EC50 at 72 h in data set [1] is 35 µM; in data set [3], at least 50 µM. For the same compound, the 50% inhibitory concentration (IC50) in data set [2] was 0.037 µM.
The like results for `Cn1cc(NC(=O)c2cnn3cccnc23)c(-c2cc(S(=O)(=O)c3ccn(C)c(=O)c3)ccc2OC(F)F)n1` [Example 44, N-[3-[2-(difluoromethoxy)-5-[(1-methyl-2-oxo-4-pyridyl)sulfonyl]phenyl]-1-methyl-pyrazol-4-yl]pyrazolo[1,5-a]pyrimidine-3-carboxamide] were, in that order, 11 µM, 24 µM and 0.029 µM.
For `N#CCn1cc(NC(=O)c2cnn3cccnc23)c(-c2cc(S(=O)(=O)C3CC3)ccc2OC(F)F)n1` [Example 45, N-[1-(cyanomethyl)-3-[5-cyclopropylsulfonyl-2-(difluoromethoxy)phenyl]pyrazol-4-yl]pyrazolo[1,5-a]pyrimidine-3-carboxamide], the EC50 at 72 h in data set [1] and in data set [3] was at least 50 µM throughout. The IC50 in data set [2] was 0.035 µM.
On to `Cn1cc(NC(=O)c2cnn3cccnc23)c(-c2cc3c(cc2OC(F)F)NCCS3(=O)=O)n1` [Example 46, N-[3-[6-(difluoromethoxy)-1,1-dioxo-3,4-dihydro-2H-1lambda6,4-benzothiazin-7-yl]-1-methyl-pyrazol-4-yl]pyrazolo[1,5-a]pyrimidine-3-carboxamide], for which the EC50 at 72 h in data set [1] and in data set [3] was at least 50 µM each time. Besides, in data set [2], the IC50 came to 0.049 µM.
Regarding `CN(C)CCn1cc(S(=O)(=O)c2ccc(OC(F)F)c(-c3nn(C)cc3NC(=O)c3cnn4cccnc34)c2)cn1` [Example 49, N-[3-[2-(difluoromethoxy)-5-[1-[2-(dimethylamino)ethyl]pyrazol-4-yl]sulfonyl-phenyl]-1-methyl-pyrazol-4-yl]pyrazolo[1,5-a]pyrimidine-3-carboxamide], the EC50 at 72 h was determined as 24 µM in data set [1] and 33 µM in data set [3]. Further, the IC50 in data set [2] was found to be 0.028 µM.
Take `C[C@H](Cn1cc(S(=O)(=O)c2ccc(OC(F)F)c(-c3nn(C)cc3NC(=O)c3cnn4cccnc34)c2)cn1)N(C)C` [Example 59, N-[3-[2-(difluoromethoxy)-5-[1-[(2R)-2-(dimethylamino)propyl]pyrazol-4-yl]sulfonyl-phenyl]-1-methyl-pyrazol-4-yl]pyrazolo[1,5-a]pyrimidine-3-carboxamide]: the EC50 at 72 h worked out at 30 µM in data set [1] and 43 µM in data set [3]. Further, the IC50 in data set [2] is 0.032 µM.
For the compound `Cn1cc(NC(=O)c2cnn3cccnc23)c(-c2cc(S(=O)(=O)CCCO)ccc2OC(F)F)n1` [Example 63, N-[3-[2-(difluoromethoxy)-5-(3-hydroxypropylsulfonyl)phenyl]-1-methyl-pyrazol-4-yl]pyrazolo[1,5-a]pyrimidine-3-carboxamide], the EC50 at 72 h in data set [1] was 35 µM; in data set [3], at least 50 µM. For the same compound, the IC50 in data set [2] is 0.071 µM.
`CN(CCO)S(=O)(=O)c1ccc(OC(F)F)c(-c2nn(C)cc2NC(=O)c2cnn3cccnc23)c1` [Example 73, N-(3-(2-(difluoromethoxy)-5-(N-(2-hydroxyethyl)-N-methylsulfamoyl)phenyl)-1-methyl-1H-pyrazol-4-yl)pyrazolo[1,5-a]pyrimidine-3-carboxamide]: the values for the EC50 at 72 h in data set [1] and in data set [3] were 8.4 µM and at least 50 µM, respectively. In data set [2], the IC50 amounted to 0.053 µM.

One may read the EC50 as the midpoint of the concentration-response curve. As a reminder, the IC50 is the midpoint of a concentration-inhibition curve.
